In patent US20230220006A1, “REGENTIDE-034 AND COMPOSITION FOR IMPROVING CONDITION OF SKIN, CONTAINING SAME” (NI[…]., LTD., priority 2020, published 2023):
Where a SMILES comes first, the peptide text is derived from it.

What was measured:
CCD-986Sk = assay: Cytotoxicity evaluation (CCK8) in fibroblasts; type: cell-based, human; conditions: 5 µM or 10 µM, 48 hours, FBS-free medium
Method: (§1) The cytotoxicity of Regentide-034 prepared in Example 1 above was evaluated. Specifically, cytotoxicities were measured in HaCaT cells, which are human epidermal keratinocytes, and CCD-986Sk, which is human fibroblasts. Keratinocytes were dispensed at 3 × 10^3 cells/well and fibroblasts were dispensed at 5 × 10^3 cells/well in a 96-well plate, and then cultured in cell culture conditions for 24 hours in a medium containing 10% FBS. After culturing, 5 µM or 10 µM of Regentide-034 was added to an FBS-free medium, and this was cultured for 48 hours. Thereafter, 10 µl per well of CCK8 reaction solution (Dojindo Molecular Technologies, Kumamoto, Japan) was treated and reacted for 4 hours, and then absorbance was measured at 450 nm. The average absorbance value for each sample group was obtained, and the cell viability was evaluated by comparing it with the absorbance value of cells that had not been treated with Regentide-034 as a control group.

HaCaT cells = assay: Cytotoxicity evaluation (CCK8) in epidermal keratinocytes; type: cell-based, human; conditions: 5 µM or 10 µM, 48 hours, FBS-free medium
Method: as §1

Compound: C[C@H](N)C(=O)N[C@@H](Cc1ccc(O)cc1)C(=O)NCC(=O)N[C@@H](CS)C(=O)N[C@@H](Cc1ccc(O)cc1)C(=O)N[C@@H](CS)C(=O)NCC(=O)N[C@@H](Cc1c[nH]c2ccccc12)C(=O)NCC(=O)NCC(N)=O [Regentide-034, AYGCYCGWGG-NH2] (H-AYGCYCGWGG-NH2)
- cytotoxicity (cell viability) to fibroblasts (CCD-986Sk): not toxic
- cytotoxicity (cell viability) to epidermal keratinocytes (HaCaT cells): not toxic
